Measured values from patent US20210246122A1, “Triazine Compounds and Uses Thereof” (Aduro Biotech, Inc., priority 2018, published 2021).

Legend:
[1] = biological target: T1, Human cGAS amino acids 155-522 (Homo sapiens, UniProt Q8N884); assay: cGAS activity assay (DNA-activated cGAS, remaining ATP measured by Kinase-Glo Max luciferase assay); type: biochemical; conditions: 300 nM purified cGAS, 1 μM dsDNA, 250 μM ATP, 100 μM GTP, 37° C. for 1.25 hours
T1 construct: hexahistidine tag (N, cleaved yes); made in house; host or cells: E. coli BL21 DE3 Rosetta 2
Procedure: IC50 values were determined as follows:
Human cGAS sequence encoding amino acids 155-522 was cloned into a pET (EMD Millipore) based expression plasmid. The resulting construct contained a tandem N-terminal hexahistidine tag, maltose binding protein fusion followed by a tobacco etch virus protease cleavable linker preceding cGAS amino acids 155-522.
Construct sequence: Amino acids 155-522, Human cGAS
Protein was expressed and purified from E. coli BL21 DE3 Rosetta 2 (EMD Millipore) cells using standard techniques. Cells were grown in 2× yeast extract tryptone medium and expression was initiated via the addition of isopropyl β-D-1-thiogalactopyranoside. Expression proceeded overnight at 18° C. Cells were harvested by centrifugation and subsequently lysed via sonication. Insoluble fraction was removed by centrifugation. Maltose binding protein (MBP) fusion proteins were purified on a dextrin sepharose column (GE Healthcare) and the MBP tag was removed using tobacco etch virus protease overnight during dialysis. Protein was further purified on a heparin column (GE Healthcare) and eluted using a NaCl gradient. Column fraction were pooled and further purified on a Superdex 75 gel filtration column (GE Healthcare). Protein was quantified using 280 nm absorbance. Protein was then flash frozen in liquid nitrogen and stored at −80° C. until use.
Potential antagonists were diluted in 100% dimethyl sulfoxide and added to the reaction. Final dimethyl sulfoxide concentration was 5%. The compounds were tested from 1 μM with either 3- or 4-fold serial dilutions down to 0.000051 or 0.000004 μM respectively.
Two complementary DNA oligos (IDT DNA) were annealed by slow cooling from 95° C. The resulting double stranded DNA was used to activate cGAS.
Reactions were performed at 37° C. for 1.25 hours. Reaction buffer: 20 mM Tris HCl pH 9, 100 mM NaCl, 5 mM MgCl2, 0.1 mg/ml bovine gamma globulin, 250 μM adenosine triphosphate, 100 μM guanosine triphosphate, 0.5 mM Tris(2-carboxyethyl)phosphine hydrochloride, 1 μM double stranded DNA and 300 nM purified cGAS protein.
Reactions were stopped and ATP levels in the reaction were measured using a luciferase based assay. Promega Kinase-Glo Max Assay. Luminescence was measured on a plate reader (Molecular Devices). Values were normalized to control wells lacking compound.

cGAS/STING pathway = assay: THP1 cell-based cGAS/STING pathway activity assay (luciferase reporter linked to IRF-3 activation); conditions: Homo sapiens, THP-1; THP1 cells, IRF-3 linked luciferase reporter
Procedure: A cellular assay can be used to assess the compounds of the invention for their ability to inhibit the cGAS/STING pathway. Cells that express a luciferase-based reporter that is linked to IRF-3 activation are used to determine response as a function of compound concentration. Such an assay is described in Vincent et al., Nature Communications 2017, 8(1):750, doi: 10.1038/s41467-017-00833-9. Compounds of the invention were assessed using similar assay methods in a THP1 cell assay to generate IC50 values as provided in the following Table 8. In this table, activity level “A” indicates an IC50 value less than 20 μM, “B” indicates an IC50 value between 20 and 100 μM, and “C” indicates an IC50 value above the upper limit of the assay (100 μM), or where an IC50 value could not be generated from the data.

T1 sequence (Q8N884 157-522): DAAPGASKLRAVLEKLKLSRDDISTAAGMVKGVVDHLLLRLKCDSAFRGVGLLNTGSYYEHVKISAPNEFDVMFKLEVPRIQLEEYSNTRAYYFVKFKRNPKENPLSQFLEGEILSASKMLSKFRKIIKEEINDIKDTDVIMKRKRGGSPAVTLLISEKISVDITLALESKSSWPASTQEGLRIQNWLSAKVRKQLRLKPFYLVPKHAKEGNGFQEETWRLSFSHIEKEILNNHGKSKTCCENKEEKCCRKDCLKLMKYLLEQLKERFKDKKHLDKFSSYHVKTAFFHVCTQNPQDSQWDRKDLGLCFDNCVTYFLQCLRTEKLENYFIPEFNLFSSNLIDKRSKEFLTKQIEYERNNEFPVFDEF

Compound | IC50 [1] | IC50 (cGAS/STING pathway)
COC(=O)[C@H](Cc1ccc(C#N)cc1)Nc1nc(NCc2nc3cc(Cl)ccc3[nH]2)nc(Nc2cccc(CN3CCN(C(=O)c4nccnc4O)CC3)c2)n1 [TA1059, methyl (S)-2-((4-(((5-chloro-1H-benzo[d]imidazol-2-yl)methyl)amino)-6-((3-((4-(3-hydroxypyrazine-2-carbonyl)piperazin-1-yl)methyl)phenyl)amino)-1,3,5-triazin-2-yl)amino)-3-(4-cyanophenyl)propanoate] | < 20 µM | > 100 µM
N#Cc1ccc(C[C@H](Nc2nc(NCc3nc4cc(F)ccc4[nH]3)nc(Nc3cccc(CN4CCN(C(=O)c5nccnc5O)CC4)c3)n2)C(=O)O)cc1 [TA1071, (S)-3-(4-cyanophenyl)-2-((4-(((5-fluoro-1H-benzo[d]imidazol-2-yl)methyl)amino)-6-((3-((4-(3-hydroxypyrazine-2-carbonyl)piperazin-1-yl)methyl)phenyl)amino)-1,3,5-triazin-2-yl)amino)propanoic acid] | < 20 µM | > 100 µM
COCCOCCNC(=O)[C@H](Cc1ccc(C#N)cc1)Nc1nc(NCc2nc3cc(F)ccc3[nH]2)nc(Nc2cccc(CN3CCN(C(=O)c4nccnc4O)CC3)c2)n1 [TA1025, (S)-3-(4-cyanophenyl)-2-((4-(((5-fluoro-1H-benzo[d]imidazol-2-yl)methyl)amino)-6-((3-((4-(3-hydroxypyrazine-2-carbonyl)piperazin-1-yl)methyl)phenyl)amino)-1,3,5-triazin-2-yl)amino)-N-(2-(2-methoxyethoxy)ethyl)propanamide] | < 20 µM | > 100 µM
COC(=O)[C@@H](Cc1ccc(C#N)cc1)Nc1nc(NCc2nc3cc(F)ccc3[nH]2)nc(Nc2cccc(CN3CCN(C(=O)c4nccnc4O)CC3)c2)n1 [TA1027, methyl (R)-3-(4-cyanophenyl)-2-((4-(((5-fluoro-1H-benzo[d]imidazol-2-yl)methyl)amino)-6-((3-((4-(3-hydroxypyrazine-2-carbonyl)piperazin-1-yl)methyl)phenyl)amino)-1,3,5-triazin-2-yl)amino)propanoate] | < 20 µM | > 100 µM
COCCOCCOC(=O)[C@H](Cc1ccc(C#N)cc1)Nc1nc(NCc2nc3cc(F)ccc3[nH]2)nc(Nc2cccc(CN3CCN(C(=O)c4nccnc4O)CC3)c2)n1 [TA1070, 2-(2-methoxyethoxy)ethyl (S)-3-(4-cyanophenyl)-2-((4-(((5-fluoro-1H-benzo[d]imidazol-2-yl)methyl)amino)-6-((3-((4-(3-hydroxypyrazine-2-carbonyl)piperazin-1-yl)methyl)phenyl)amino)-1,3,5-triazin-2-yl)amino)propanoate] | < 20 µM | > 100 µM
COC(=O)[C@H](Cc1ccc(C#N)cc1)Nc1nc(Nc2cccc(CN3CCN(C(=O)c4nccnc4O)CC3)c2)nc(N(C)CCc2nc3ccc(OC)cc3[nH]2)n1 [TA1053, methyl (S)-3-(4-cyanophenyl)-2-((4-((3-((4-(3-hydroxypyrazine-2-carbonyl)piperazin-1-yl)methyl)phenyl)amino)-6-((2-(6-methoxy-1H-benzo[d]imidazol-2-yl)ethyl)(methyl)amino)-1,3,5-triazin-2-yl)amino)propanoate] | < 20 µM | > 100 µM
COC(=O)[C@H](Cc1ccc(C#N)cc1)Nc1nc(NCc2nc3cc(F)ccc3[nH]2)nc(Nc2cccc(CN3CCN(C(=O)c4ccnnc4O)CC3)c2)n1 [TA1066, methyl (S)-3-(4-cyanophenyl)-2-((4-(((5-fluoro-1H-benzo[d]imidazol-2-yl)methyl)amino)-6-((3-((4-(3-hydroxypyridazine-4-carbonyl)piperazin-1-yl)methyl)phenyl)amino)-1,3,5-triazin-2-yl)amino)propanoate] | < 20 µM | > 100 µM
CNC(=O)[C@H](Cc1ccc(C#N)cc1)Nc1nc(NCc2nc3cc(F)ccc3[nH]2)nc(Nc2cccc(CN3CCN(C(=O)c4nccnc4O)CC3)c2)n1 [TA1024, (S)-3-(4-cyanophenyl)-2-((4-(((5-fluoro-1H-benzo[d]imidazol-2-yl)methyl)amino)-6-((3-((4-(3-hydroxypyrazine-2-carbonyl)piperazin-1-yl)methyl)phenyl)amino)-1,3,5-triazin-2-yl)amino)-N-methylpropanamide] | < 20 µM | > 100 µM
COC(=O)[C@H](Cc1ccc(C#N)cc1)Nc1nc(NCc2nc3cc(F)ccc3[nH]2)nc(Nc2cccc(CN3CCN(C(=O)c4nccnc4O)CC3)c2)n1 [TA1020, methyl (S)-3-(4-cyanophenyl)-2-((4-(((5-fluoro-1H-benzo[d]imidazol-2-yl)methyl)amino)-6-((3-((4-(3-hydroxypyrazine-2-carbonyl)piperazin-1-yl)methyl)phenyl)amino)-1,3,5-triazin-2-yl)amino)propanoate] | < 20 µM | > 100 µM
COC(=O)[C@H](Cc1ccc(C#N)cc1)Nc1nc(NCc2ccccc2)nc(Nc2cccc(CN3CCN(C(=O)c4nccnc4O)CC3)c2)n1 [TA1050, methyl (S)-2-((4-(benzylamino)-6-((3-((4-(3-hydroxypyrazine-2-carbonyl)piperazin-1-yl)methyl)phenyl)amino)-1,3,5-triazin-2-yl)amino)-3-(4-cyanophenyl)propanoate] | 20 to 250 µM | 
COC(=O)[C@H](Cc1ccc(C#N)cc1)Nc1nc(Nc2cccc(CN3CCN(C=O)CC3)c2)nc(OC)n1 [TA1077, methyl (S)-3-(4-cyanophenyl)-2-((4-((3-((4-formylpiperazin-1-yl)methyl)phenyl)amino)-6-methoxy-1,3,5-triazin-2-yl)amino)propanoate] | > 250 µM | 
COC(=O)[C@H](Cc1ccc(C#N)cc1)Nc1nc(Nc2cccc(CN3CCNCC3)c2)nc(N(C)CCc2nc3ccc(OC)cc3[nH]2)n1 [TA1052, methyl (S)-3-(4-cyanophenyl)-2-((4-((2-(6-methoxy-1H-benzo[d]imidazol-2-yl)ethyl)(methyl)amino)-6-((3-(piperazin-d-ylmethyl)phenyl)amino)-1,3,5-triazin-2-yl)amino)propanoate] | 20 to 250 µM | 
COCCOCCNC(=O)[C@H](Cc1ccc(C#N)cc1)Nc1nc(NCc2nc3cc(F)ccc3[nH]2)nc(Nc2cccc(CN3CCN(C(=O)c4nccnc4OC)CC3)c2)n1 [TA1029, (S)-3-(4-cyanophenyl)-2-((4-(((5-fluoro-1H-benzo[d]imidazol-2-yl)methyl)amino)-6-((3-((4-(3-methoxypyrazine-2-carbonyl)piperazin-1-yl)methyl)phenyl)amino)-1,3,5-triazin-2-yl)amino)-N-(2-(2-methoxyethoxy)ethyl)propanamide] | > 250 µM | 
COC(=O)[C@H](Cc1ccccc1)Nc1nc(NCc2nc3cc(F)ccc3[nH]2)nc(Nc2cccc(CN3CCNCC3)c2)n1 [TA1064, methyl (4-(((5-fluoro-1H-benzo[d]imidazol-2-yl)methyl)amino)-6-((3-(piperazin-1-ylmethyl)phenyl)amino)-1,3,5-triazin-2-yl)phenylalaninate] | > 250 µM | 
Cc1cc2nc(CN(C)c3nc(Nc4cccc(CN5CCN(S(=O)(=O)c6cnn(C)c6C)CC5)c4)nc(N[C@@H](Cc4ccc(C#N)cc4)C(=O)N(C)C)n3)[nH]c2cc1C [TA1073, (S)-3-(4-cyanophenyl)-2-((4-(((5,6-dimethyl-1H-benzo[d]imidazol-2-yl)methyl)(methyl)amino)-6-((3-((4-((1,5-dimethyl-1H-pyrazol-4-yl)sulfonyl)piperazin-1-yl)methyl)phenyl)amino)-1,3,5-triazin-2-yl)amino)-N,N-dimethylpropanamide] | > 250 µM | 
COCCNc1nc(Nc2cccc(CN3CCNCC3)c2)nc(N[C@@H](Cc2ccc(C#N)cc2)C(=O)OC)n1 [TA1031, methyl (S)-3-(4-cyanophenyl)-2-((4-((2-methoxyethyl)amino)-6-((3-(piperazin-1-ylmethyl)phenyl)amino)-1,3,5-triazin-2-yl)amino)propanoate] | > 250 µM | 
